The source of these data is patent US20090156477A1, “Compositions and Methods for Regulating Inflammatory Responses” (Massachusetts Institute of Technology, priority 2005, published 2009).

What all share (format): cell-based, human
The test system of one test is Fz2. The test is described as follows: RT-PCR expression in Caco-2 cells after FGF treatment: Fz2. Particulars: normalized to PBS treatment, defined as 1.0. From the text:
(§1) Five μg of total RNA was isolated from Caco-2 cells using Trizol reagent (Life Tech, Rockville, Md.) followed by reverse transcription with random hexamers. Specific oligomers were designed based on published sequences in order to detect the expression of specific human Wnt, Fz and syndecan isoforms. Sequences of primer pairs were as follows: Wnt-1: 5′-CACGACCTCGTCTACTTCGAC-3′ (SEQ ID NO: 17) and 5′-ACAGACACTCGTGCAGTACGC-3′ (SEQ ID NO: 18); Wnt-2: 5′-CATGGTGGTACATGAGAGCTAC-3′ (SEQ ID NO: 19) and 5′-GGCAAATACAACTCCAGCTGAG-3′ (SEQ ID NO: 20); Wnt-3: 5′-GAGAGCCTCCCCGTCCACAG-3′ (SEQ ID NO: 21) and 5′-CTGCCAGGAGTGTATTCGCATC-3′ (SEQ ID NO: 22); Wnt-3a: 5′-CAGGAACTACGTGGAGATCATG-3′ (SEQ ID NO: 23) and 5′-CCATCCCACCAAACTCGATGTC-3′ (SEQ ID NO: 24); Fz-1: 5′-GAACTTTCCTCCAACTTCATGGC-3′ (SEQ ID NO: 25) and 5′-CATTTCCATTTTACAGACCGG-3′ (SEQ ID NO: 26); Fz-2: 5′-GGTGAGCCAGCACTGCAAGAG-3′ (SEQ ID NO: 27) and 5′-CCTAAAAGTGAAATGGTTTCGATCG-3′ (SEQ ID NO: 28); Fz-10: 5′-ACACGTCCAACGCCAGCATG-3′ (SEQ ID NO: 29) and 5′-ACGAGTCATGTTGTAGCCGATG-3′ (SEQ ID NO: 30); and Syndecan-1/Sdc-1/CD138: 5′-CTTCACACTCCCCACACAGA-3′ (SEQ ID NO: 31) and 5′-TCCTGTTTGGTGGGCTTCTG-3′ (SEQ ID NO: 32). To control for total cell […], RT-PCR was also performed on β-actin using the primers 5′-GCCAGCTCACCATGGATGATGATAT-3′ (SEQ ID NO: 33) and 5′-GCTTGCTGATCCACATCTGCTGGAA-3′ (SEQ ID NO: 34). PCR was performed using the Advantage-GC cDNA kit from Clontech as per manufacturer's instructions (Palo Alto, Calif.).

For the next test, the system named is T84 cells. The test is described as follows: Transepithelial resistance (TER) of T84 monolayers. The note with it: for inhibited TER increases: 100 ng/ml ligand, three days (72 hours) after addition, percent reduction in TER compared to PBS treated cells; for reduced resistance on day 5: ligand added on day 0 and day 2, compared to untreated cells. On the procedure: Caco-2 cells were grown close to confluence, and T84 cells were grown to confluence. The apical chambers of transwell plates with 6.5 mm diameter and 3 μm pore size filters were pretreated with 50 μl of 45 μg/ml collagen IV in 60% ethanol 24 hours prior to plating and incubated overnight at room temperature. After reaching confluence, cells were washed with 20 ml PBS and treated with 3.5 ml trypsin-EDTA per 175 cm^2 flask for 20-60 min at 37° C. until cells detached. Cells were resuspended in 16.5 ml media appropriate to the cell type. Each apical chamber was supplemented with 82 μl cell solution. The basolateral chamber was filled with 1 ml propagation media. Filters were fed with new media every two days over the course of experiments.
Caco-2 and T84 cells were allowed to grow on transwells to form monolayers. Monolayer formation was examined every other day by light microscopy as well as by transepithelial resistance (TER) measurements using an EVOM ohmmeter (World Precision Instruments, Sarasota, Fla.). After monolayer formation, cells were treated with 100 ng/ml FGF1, 100 ng/ml FGF2, 100 ng/ml FGF7 or an equivalent volume (10 μl) of PBS. TER measurements were made either after 72 hours or at each of the 30 minutes, 1 hour, 2 hours, 4 hours, 9 hours, 24 hours and 48 hours timepoints. To determine the effects of multiple additions of ligand, FGFs or PBS were added initially and again after 2 days, and TER measurements were made after 0, 2 and 5 days.
To probe the mechanism by which various FGFs induced cell mediated effects, various media treatments were employed. Ammonium tetrathiomolybdate (TM) was added 24 hours prior to the addition of ligands to yield a final concentration of 200 μM, sufficient to prevent the release of FGF1 [3]. Similarly, sodium chlorate, which reduces cell HSPGs and the sulfation of associated HSGAGs, was added 24 hours prior to the addition of ligands to yield a final concentration of 50 mM [33,34]. Antibodies and kinase inhibitors were added immediately prior to ligands. Antibodies to FGF1, FGFR1 and FGFR3 were added at a 1:100 dilution. Kinase inhibitors were added to yield final concentrations of 50 μM LY294002, 20 μM PD98059, 1 μM SB203580. All experiments were performed in triplicate.

For a further test, the system named is Sdc-1. The test is described as follows: RT-PCR expression in Caco-2 cells after FGF treatment: Sdc-1. The note with it: normalized to PBS treatment, defined as 1.0.
From the text: as §1

The test system of another test is Wnt3. The test is described as follows: RT-PCR expression in Caco-2 cells after FGF treatment: Wnt3. The note with it: normalized to PBS treatment, defined as 1.0.
From the text: as §1

In the next test the test system is Caco-2 cells. The test is described as follows: Caco-2 proliferation assay (whole cell number). Particulars: for increased whole cell number: 100 ng/ml ligand, three days, vs PBS control. On the procedure:
Caco-2 cells were grown to just prior to confluence, and T84 cells were grown to confluence. Each flask was washed with 20 ml PBS and treated with 3 ml trypsin-EDTA at 37° C. for 20-60 minutes until cells detached. Cells were centrifuged for 3 minutes at 195×g. The supernatant was aspirated, and the cells were resuspended in 10 ml media. The cell density was measured using an electronic cell counter, and the suspension was diluted to 50,000 cells/ml. The suspension was plated at 1 ml/well into 12-well tissue culture plates. After a 24 hour incubation in a 5% CO2, 37° C. humidified incubator, the media was aspirated, the wells were washed with serum free media, and the cells were supplemented with media containing 0.1% FBS. The wells were then supplemented with 10 μl PBS, 50 mM sodium chlorate, or 200 μM TM, and incubated for 24 hours. Subsequently, cells were supplemented with 100 ng/ml FGF1, FGF2, FGF7, or 10 μl PBS, and incubated for 72 hours. Wells were then washed twice with PBS and treated with 0.5 ml trypsin-EDTA/well and incubated at 37° C. until cells detached. Whole cell number was determined using an electronic cell counter. Data was averaged over three experiments, each consisting of four wells per condition.

As for FGF1: Recombinant human FGF1 from Amgen, the “Fz2 expression (intensity of RT-PCR images)” value (shortened to “Fz2 expression”) in the test with Fz2 stood at 0.7. The “inhibited TER increases” value in the test with T84 cells is reported as 30.1±1.5%. For the same molecule, in the test on T84 cells (100 ng/ml, 48 hours), the “reduced TER at 48 hours” value is reported as 22.7±3.2%. Further, the “effect of added agent on FGF-induced reduction in TER” value in the test on T84 cells (agent given before or with 100 ng/ml FGFs (TM 200 μM, sodium chlorate 50 mM, LY294002 50 μM, antibodies 1:100)) is “restored TER reductions”. Further, the “Sdc-1 expression (intensity of RT-PCR images)” value (from here on “Sdc-1 expression”) with Sdc-1 is on record as 1.3. For the same molecule, the “Wnt3 expression (intensity of RT-PCR images)” value (shortened to “Wnt3 expression”) in the test on Wnt3 came to 1.3. Also, the “effect of added agent on proliferative effect of FGF2 and FGF7” value in the test on Caco-2 cells (TM 200 μM, FGF1 added to TM treated cells) is given as “restored the proliferative capacity of these ligands”. In the test on Caco-2 cells (over three days), the “proliferation (in words)” value is given as “did not induce the proliferation”.

“FGF2: Recombinant human FGF2, produced as described”: the “Fz2 expression” value in the test with Fz2 is given as 1.7. In the test on T84 cells, the “inhibited TER increases” value worked out at 43.4±16.6% and the “reduced resistance on day 5” value was found to be 41.7±8.1%. The “Sdc-1 expression” value in the test on Sdc-1 worked out at 0.9. The “Wnt3 expression” value in the test with Wnt3 came to 1.3. In the test with Caco-2 cells, the “increased whole cell number” value is given as 20.2±7.4%.

B1: FGF7: Recombinant human FGF7 from Sigma (protein, UniProt P21781 32-194, looked up)
Fibroblast growth factor 7: CNDMTPEQMATNVNCSSPERHTRSYDYMEGGDIRVRRLFCRTQWYLRIDKRGKVKGTQEMKNNYNIMEIRTVAVGIVAIKGVESEFYLAMNKEGKLYAKKECNEDCNFKELILENHYNTYASAKWTHNGGEMFVALNQKGIPVRGKKTKKEQKTAHFLPMAIT
B1: the “Fz2 expression” value in the test with Fz2 is 1.6. Besides, in the test with T84 cells, the “inhibited TER increases” value was determined as 54.6±7.6% and the “reduced resistance on day 5” value is listed as 37.3±3.5%. Besides, in the test on Sdc-1, the “Sdc-1 expression” value is listed as 0.6. In addition, the “Wnt3 expression” value in the test with Wnt3 turned out to be 1.2. Moreover, the “increased whole cell number” value in the test with Caco-2 cells was 16.4±8.9%.
